Here are results for 5 substances from patent US20240327459A1, “PEPTIDE FRAGMENTS FOR TREATMENT OF DIABETES” (Follicum AB, priority 2018, published 2024).

One experiment concerns INS-1E cells. Nature of the experiment: Insulin secretion by novel peptide analogues (Example 21, FIG. 16). It counts as cell-based, rat. Conditions: 100 nM peptide, high glucose buffer, vs un-supplemented high glucose buffer. As for the experimental part:
Materials and methods: Rat INS-1 β-cells (passages 60-70) were cultured at 37° C. and 5% CO2 in cRPMI media (RPMI 1640 supplemented with 10% fetal bovine serum, 50 IU/mL penicillin, 50 mg/L streptomycin, 10 mM HEPES, 2 mM L-glutamine, 1 mM sodium pyruvate, and 50 μM beta-mercaptoethanol) unless otherwise stated. INS-1 cells were seeded in 96-well plates (2×10^3 cells/well) in cRPMI medium and following overnight incubation, the cells were washed in PBS before pre-incubation for 120 min at 37° C. in Krebs-Ringer bicarbonate buffer, pH 7.4, supplemented with 10 mM HEPES, 0.1% bovine serum albumin and 2.8 mM glucose. Following pre-incubation, the buffer was exchanged with fresh Krebs-Ringer buffer as described above and supplemented with specific glucose concentrations and peptides for the individual experiments as described below. Immediately after 60 minutes incubation at 37° C., an aliquot of the buffer was removed and frozen for subsequent insulin ELIZA assay.
In order to correct for the variance between experiments, all values were normalized to, and expressed as percentage of the average value of the high glucose control in the individual experiments. The analogues were subsequently ranked according to performance (FIG. 16).

In the next experiment the test system is mouse pancreatic islets. Nature of the experiment: Insulin secretion from isolated mouse pancreatic islets (Examples 5 and 7). It counts as cell-based. The following applies: 60 min. As to the method:
Mouse pancreatic islets were isolated from 8-week old C57BL/6J male mice (Taconic). Mice were sacrificed by an overdose of isoflurane and cervical dislocation. 3 ml of 0.9 U/ml collagenase P was injected into the pancreatic duct to inflate the pancreas. The Pancreas was then removed and collagen digested for 19 min at 37° C. The samples Were vigorously shaken to disrupt the tissue. The digest was transferred into ice cold Hank's Balanced Salt Solution (HBSS) with Ca^2+ and Mg^2+. The suspension was allowed to sit for 10 min to allow the islet to sink, and the islets were washed in fresh HBSS four times. The islets were then hand-picked and sorted according to size. Islets (n=3 per well in a 96 well plate) were pre-incubated in KRB buffer during 10 min 37° C., pH 7.4, supplemented with 10 mM HEPES, 0.1% bovine serum albumin. After pre-incubation, the buffer was changed and islets were incubated at different test conditions in new KRB buffer with 0.1% bovine serum albumin (non-treated ctrl, FOL-005 peptide, or GLP-1) for 60 min at 37° C. Immediately after incubation, an aliquot of the buffer was removed and frozen for subsequent assay of insulin.
Mouse pancreatic islets were isolated from 8-week old C57BL/6J male mice as described under example 5. The islets were then hand-picked and sorted according to size. Islets (n=5 per well in a 96 well plate) were pre-incubated in 200 μl KRB buffer during 10 min 37° C., pH 7.4, supplemented with 10 mM HEPES, 0.1% bovine serum albumin. Following pre-incubation, the buffer was changed and islets were incubated in different test conditions in new KRB buffer with 0.1% bovine serum albumin (non-treated ctrl, FOL-014 peptide, and GLP-1) for 60 min at 37° C. Immediately after incubation, an aliquot of the buffer was removed and frozen for subsequent assay of insulin.

The subject of another experiment is isolated mouse islets. Nature of the experiment: Insulin and glucagon secretion from isolated mouse islets (Example 12). It counts as cell-based. Conditions: 100 nM. As for the experimental part:
Twelve-week-old male C57/bl6 mice were euthanized with isoflurane and cervical dislocation. After clamping the hepatic ducts, 3 ml of 0.9 U/ml collagenase P was injected into the bile duct to inflate the pancreas. The pancreas was then removed and digested for 19 min at 37° C. The samples were vigorously shaken to disrupt the tissue. The digest was quickly transferred into ice cold Hank's Balanced Salts Solution with Ca^2+ and Mg^2+. The suspension was allowed to sit for 8 min to allow the islet to sink, and the islets were washed in the same manner four times. The islets were then handpicked and sorted according to size.
Freshly isolated islets were seeded in groups of 5 in a 96-well plate and preincubated for 1 h at 37° C. in a Krebs-Ringer bicarbonate buffer (pH 7.4). The islets were incubated for 1 h at 37° C. in Krebs-Ringer buffered solution supplemented with 0.6 or 6 μM FOL-014 or 100 nM GLP-1 or left unsupplemented for control. Immediately after incubation, the medium was removed for assays of insulin and glucagon using Mercodia's ELISA kits. The effect of FOL-014 on insulin (FIGS. 8A and B) and glucagon (FIGS. 8C and D) secretion from isolated mouse islets was measured in the presence of low glucose (2.8 mM; FIGS. 8A and C) or high glucose (16.7 mM; FIGS. 8B and D) concentrations.

Experiment [1] relates to INS-1 cells. Nature of the experiment: Proliferation of INS-1 cells ([methyl-3H] thymidine incorporation). It counts as cell-based, rat. As for the experimental part:
To investigate if FOL-005 and FOL-014 could induce proliferation of β-cells we used INS-1 cells. Rat INS-1 cells were seeded in 96-well plates in RPMI medium with supplement and after 2 hours the medium was changed to RPMI without supplement. During the proliferation experiment the cells were incubated at different test conditions (FOL-005, FOL-014, coated or in solution, 48 h incubation) and during the last 20 hours of culture period the cells were pulsed with 1 μ Ci/well of [methyl-3H] thymidine. The cells were then harvested onto glass fiber filters using a FilterMate harvester. The filters were air dried, and the bound radioactivity was measured using a liquid scintillation counter. To study whether FOL-005 influenced β-cell proliferation, INS-1 cells were treated with increasing amounts of soluble FOL-005 (0.06-6 μM) during 48 hours and proliferation was measured with radiolabeled thymidine incorporation into newly synthesized DNA.

Experiment [2] has as its system INS-1 cells. Nature of the experiment: Glucotoxicity-induced apoptosis of INS-1 cells (Annexin V staining, caspase-3 activity). It is filed as cell-based, rat. Conditions: 20 mM glucose, 48 h, vs 20 mM glucose alone. As for the experimental part: Since glucotoxicity in pancreatic β-cells is a well-established process in type 2 diabetes we next investigated the protective effects of FOL-005 on β-cells during glucotoxic conditions. First we confirmed that 20 mM glucose induced cell apoptosis in INS cells after 48 h of exposure. High glucose (20 mM) containing RPMI medium induced more Annexin V positive cells and more caspase-3 activity in INS cells compared to cells incubated with medium containing 5 mM glucose (FIG. 2A-B). […] The rate of apoptosis in INS-1 cells was measured with either Caspase-3 Assay Kit or stained with Annexin V Apoptosis Detection Kit with 7-AAD. Caspase-3 activity was measured with fluorescence at an excitation wavelength of 380 nm and an emission wavelength of 440 nm. Caspase-3 activity was then normalized to protein concentration in each well. Measurements of
Annexin V stained cells were performed using a CyAn ADP flow cytometer and analyzed with Summit V4.3 software.

A further experiment relates to INS-1 β-cells. Nature of the experiment: Insulin secretion from INS-1 cells (Examples 4 and 6). It counts as cell-based, rat. The following applies: 6 μM peptide. As for the experimental part: To investigate the stimulatory effect of FOL-005 on insulin secretion, INS-1 β-cells were used in the following experiments. Cells were seeded overnight in cRPMI and then washed with PBS before pre-incubation for 60 min at 37° C. in Krebs-Ringer bicarbonate buffer (KRB), pH 7.4, supplemented with 10 mM HEPES, 0.1% bovine serum albumin. After pre-incubation, the buffer was changed and the INS-1 cells were incubated at different test conditions (0 mM, 5 mM or 20 mM glucose) and stimulated with peptide FOL-005 or FOL-015 (SEQ ID NO: 158) or left untreated during 60 min at 37° C. Immediately after incubation, an aliquot of the buffer was removed and frozen for subsequent assay of insulin with an insulin radioimmunoassay kit.
INS-1 β-cells were used to investigate the stimulatory effect of FOL-014 on insulin secretion. Cells were seeded overnight and then washed with PBS before pre-incubation for 60 min at 37° C. in Krebs-Ringer bicarbonate buffer (KRB), pH 7.4, supplemented with 10 mM HEPES, 0.1% bovine serum albumin. After pre-incubation, the buffer was changed and the INS-1 cells were incubated in new KRB buffer supplemented with 10 mM HEPES, 0.1% bovine serum albumin and stimulated with peptide FOL-014 or left untreated during 60 min at 37° C. Immediately after incubation, an aliquot of the buffer was removed and frozen for subsequent assay of insulin.

“Also recorded” adds a separate entry of the source. Where no end group is shown, it is not given here.

For the substance “DSIELSYGIK (MISC_FEATURE - peptide) [FOL-059]”, in the experiment with INS-1E cells, the insulin secretion result is given as “increased the insulin secretion as compared with cells treated with an un-supplemented high glucose buffer”.
For “EIDSIELSYGIK (MISC_FEATURE - peptide) [FOL-057]”, the insulin secretion result in the experiment on INS-1E cells is “increased the insulin secretion as compared with cells treated with an un-supplemented high glucose buffer”.
As to “GLP-1: native glucagon-like peptide-1, metabolic hormone that stimulates insulin secretion; comparator (HAEGTFTSDVSSYLEGQAAKEFIAWLVKGR; ends and bridges not checked; UniProt P01275 98-127, looked up) [reference compound]”, the insulin secretion entry in the experiment on mouse pancreatic islets (Example 5, 100 nM, vs unstimulated control islets) is listed as “secreted more insulin compared to unstimulated control islets”; in the experiment on mouse pancreatic islets (Example 7, 100 nM) it was “did not affect insulin secretion; also recorded: had no effect on insulin secretion”; with isolated mouse islets (high glucose (16.7 mM)) it was “significantly increased insulin secretion”; with isolated mouse islets (low glucose (2.8 mM)) it was “enhanced insulin secretion also in low glucose samples”. Moreover, the results for the glucagon secretion entry with isolated mouse islets (high glucose (16.7 mM)) and with isolated mouse islets (low glucose (2.8 mM)) were “efficiently reduced glucagon secretion” and “failed to inhibit glucagon secretion in low glucose conditions”, respectively.
Take “IDSIELSYGIK (MISC_FEATURE - peptide) [FOL-058]”: the insulin secretion result in the experiment with INS-1E cells is listed as “increased the insulin secretion as compared with cells treated with an un-supplemented high glucose buffer”.
As for “VDTYDGDISVVYGLR (MISC_FEATURE - peptide, FOL-005)”, the “proliferation of INS-1 cells” value in the experiment on INS-1 cells [1] (peptide in solution, 0.06-6 μM, 48 hours) is reported as “stimulated INS-1 cell proliferation; also recorded: induced increasing proliferation of INS-1 cells”; with INS-1 cells [1] (wells coated with peptide and blocked with BSA, vs BSA coated control wells) it was “stimulated proliferation compared to control; also recorded: induced more proliferation of β-cells compared to only BSA coated control”. The “apoptotic cells (Annexin V positive)” value in the experiment with INS-1 cells [2] is “decreased cell apoptosis; also recorded: reduced the level of apoptotic cells compared to 20 mM glucose alone”. For the same substance, in the experiment on INS-1 cells [2], the caspase-3 activity result is “decreased cell apoptosis; also recorded: diminished the rate of glucotoxicity-induced caspse-3 activity”. For the same substance, in the experiment with INS-1 β-cells, the “insulin secretion at 20 mM glucose compared with 5 mM glucose” value is “responded with more insulin secretion compared to FOL-005 stimulated cells incubated with 5 mM glucose”. Also, the insulin release result with INS-1 β-cells (5 mM or 20 mM glucose) is recorded as “responded with insulin secretion; also recorded: stimulated insulin release”; in the experiment on INS-1 β-cells (non glucose containing media, 60 min, vs unstimulated control and FOL-015) it was “secreted more insulin compared to unstimulated control cells or to cells stimulated with the FOL-015 control peptide; also recorded: increased”. Moreover, the insulin secretion entry in the experiment on mouse pancreatic islets (Example 5, 6 μM, vs unstimulated control islets) is “secreted more insulin compared to unstimulated control islets”.
